From US12208130B2, “Treatment of women affected with polycystic ovary syndrome” (INSTITUT NATIONAL DE LA SANTE ET DE LA RECHERCHE MEDICALE …, priority 2017, dated 2025)
Where a SMILES comes first, the peptide text is derived from it. [ ]: non-standard residue; d: D form. dPhe(4-Cl) = N[C@H](Cc1ccc(Cl)cc1)C(=O)O; d2Nal = N[C@H](Cc1ccc2ccccc2c1)C(=O)O; dCit = NC(=O)NCCC[C@@H](N)C(=O)O; d3Pal = N[C@H](Cc1cccnc1)C(=O)O

Assays:
[1] = test system: pregnant mice; assay: LH, T, E2 and P measurement in pregnant mice at E19.5; format: in vivo, mouse
Procedure: PAMH+GnRH antag. (FIG. 3D) Schematic representation of tail-tip blood sampling in adult diestrus female mice (3-4 months old). (FIG. 3E) Tail blood was collected every 10 min for 2 h and LH measured from 10 a.m-12 p.m in adult (P60) diestrus females (Control, n=8; PAMH, n=10; PAMH+GnRH antag, n=9; One-way ANOVA and Tukey's multiple comparison post hoc test, F(2,24)=57.06, *P<0.05, ***P<0.0001). Bars from left to right: Control, PAMH, PAMH+GnRH antag. (FIGS. 2F-1, 2F-2, 2F-3) Representative graphs for LH pulsatility over 2-hr in one female adult (P60) mouse of each treatment. Asterisks in (FIG. 3F) indicate the number of LH pulses/2-hr. (FIG. 3G) Mean circulating testosterone and LH levels were analyzed in pregnant PBS-treated (n=4) and AMH-treated (n=4) dams at embryonic day (E) 19.5 of gestation. […] Values are expressed as relative to the mean of each treatment. All values are expressed as mean±s.e.m. […]
For the analysis of circulating LH and T levels, animals were decapitated and trunk blood from adult (P60) animals and P0 pups (1-2 hrs after birth) were collected in sterile Eppendorf tubes and left on ice until centrifugation. […] LH levels were determined by a sandwich ELISA, as described previously (Vidal et al., 2012, PloS one, Vol. 7: e39001), using the mouse LH-RP reference provided by A. F. Parlow (National Hormone and Pituitary Program, Torrance, CA). […]

[2] = test system: placenta; assay: Quantitative RT-PCR of E19.5 placental tissue; format: in vivo, mouse; conditions: dams i.p. AMH + GnRH antag E16.5-E18.5; placenta E19.5
Procedure: PAMH+GnRH antag. (FIG. 3D) Schematic representation of tail-tip blood sampling in adult diestrus female mice (3-4 months old). (FIG. 3E) Tail blood was collected every 10 min for 2 h and LH measured from 10 a.m-12 p.m in adult (P60) diestrus females (Control, n=8; PAMH, n=10; PAMH+GnRH antag, n=9; One-way ANOVA and Tukey's multiple comparison post hoc test, F(2,24)=57.06, *P<0.05, ***P<0.0001). Bars from left to right: Control, PAMH, PAMH+GnRH antag. (FIGS. 2F-1, 2F-2, 2F-3) Representative graphs for LH pulsatility over 2-hr in one female adult (P60) mouse of each treatment. Asterisks in (FIG. 3F) indicate the number of LH pulses/2-hr. (FIG. 3G) Mean circulating testosterone and LH levels were analyzed in pregnant PBS-treated (n=4) and AMH-treated (n=4) dams at embryonic day (E) 19.5 of gestation. […] (FIG. 3H) Relative mRNA expression of placental Cyp191a (aromatase) in control (n=4) and AMH (n=4)-treated pregnant animals at E19.5. Cyp191a expression in the placenta is […] in AMH-treated pregnant dams as compared to control-treated pregnant dams (Unpaired Student's t-test, t(6)=5.414, **P<0.005). Values are expressed as relative to the mean of each treatment. All values are expressed as mean±s.e.m. (FIGS. 3I-1, 3I-2, 3I-3, 3I-4) Dams were injected from E16.5 to E18.5 with either PBS (vehicle, n=9-11), AMH (n=8-10), AMH+GnRH antag (n=5) and trunk blood was collected at E19.5 for hormonal measurements by ELISA. Data were combined from at least two independent experiments. In FIGS. 3I-1, 3I-2, 3I-3, 3I-4: left bar: vehicle; middle bar: AMH; right bar: AMH+GnRH antagonist. (FIGS. 3J-1, 3J-2, 3J-3, 3J-4)) Real-time PCR analysis of expression levels of AMHR2, CYP191A (cytochrome P450 family 19A1, aromatase), CYP11A1 (cytochrome P450 family 11A1), HSD3B1 (3beta-hydroxysteroid dehydrogenase/delta(5)-delta(4)isomerase type I or hydroxy-delta-5-steroid dehydrogenase) mRNA in the placenta of E19.5 dams. Dams were injected i.p. from E16.5 to E18.5 with either PBS (vehicle, n=8-17), AMH (n=7-11), or AMH+GnRH antag (n=8-13). Data were combined from three independent experiments. […] In FIGS. 3J-1, 3J-2, 3J-3, 3J-4: left bar: vehicle; middle bar: AMH; right bar: AMH+GnRH antagonist.
E19.5 placental tissue from female control and PAMH embryos was isolated for total RNA was using Trizol (ThermoFisher Scientific, Cat #15596026) and the RNeasy Lipid Tissue Mini Kit (Qiagen; Cat #74804) using the manufacturer's instructions. For gene expression analyses, mRNAs […] from E19.5 placental tissue were reverse transcribed using SuperScript® IV Reverse Transcriptase (Life Technologies). Real-time PCR was carried out on Applied Biosystems 7900HT Fast Real-Time PCR system using exon-boundary-specific TaqMan® Gene Expression Assays (Applied Biosystems): Amhr2 (AMHR2-Mm00513847_m1); Cyp19a1 (Cyp19a1-Mm00484049_m1); Cyp11a1 (Cyp11a1-Mm00490735_m1); HSD3b1 (Hsd3b1-Mm01261921_mH); GnRH (Gnrh-Mm01315604_m1); GnRH-R (Gnrhr-Mm00439143_m1); LH-R (Lhcgr-Mm00442931_m1). Control housekeeping genes: ActB (ActB-Mm00607939_s1); GAPDH (GAPDH-Mm99999915_g1).
Quantitative RT-PCR was performed using TaqMan® Low-Density Arrays (Applied Biosystems) on an Applied Biosystems thermocycler using the manufacturer's recommended cycling conditions. Gene expression data were analyzed using SDS 2.4.1 and Data Assist 3.01 software (Applied Biosystems), with ActB and GAPDH as control house-keeping mRNA following a standardized procedure. […]

Compound: CC(=O)N[C@H](Cc1ccc2ccccc2c1)C(=O)N[C@H](Cc1ccc(Cl)cc1)C(=O)N[C@H](Cc1cccnc1)C(=O)N[C@@H](CO)C(=O)N[C@@H](Cc1ccc(O)cc1)C(=O)N[C@H](CCCNC(N)=O)C(=O)N[C@@H](CC(C)C)C(=O)N[C@@H](CCCNC(=N)N)C(=O)N1CCC[C@H]1C(=O)N[C@H](C)C(N)=O [Cetrorelix acetate, Ac-D-2Nal-D-Phe(4-Cl)-D-3Pal-Ser-Tyr-D-Cit-Leu-Arg-Pro-D-Ala-NH2] (Ac-[d2Nal][dPhe(4-Cl)][d3Pal]SY[dCit]LRP[dA]-NH2)
- circulating T in dams ([1]; dams i.p. AMH + GnRH antag E16.5-E18.5): very low T levels
- AMH-induced increase of LH in pregnant mice ([1]; dams i.p. AMH + GnRH antagonist E16.5-E18.5): prevented
- AMH-driven downregulation of placental HSD3B1 gene expression [2]: prevented the downregulation
- AMH-driven inhibition of placental CYP19A1 mRNA [2]: prevented
- placental CYP11A1 expression [2]: did not find any difference
- placental LHR expression [2]: normalized
- placental expression of GnRH and GnRHR [2]: unchanged
